Holding throughout (test): whole-cell patch clamp, tsA201 cells
Assay type in all cases: cell-based
In general terms: In patch-clamp work, channel activity is measured electrically.

For one assay, the target named is T1, hTRAAK (K2P4.1) (Homo sapiens, UniProt Q9NYG8).
T1 construct: gene KCNK4; isoform 2 in pcDNA3.1, transiently expressed in tsA201 cells; homodimer
T1 sequence (Q9NYG8 1-419 isoform Q9NYG8-2): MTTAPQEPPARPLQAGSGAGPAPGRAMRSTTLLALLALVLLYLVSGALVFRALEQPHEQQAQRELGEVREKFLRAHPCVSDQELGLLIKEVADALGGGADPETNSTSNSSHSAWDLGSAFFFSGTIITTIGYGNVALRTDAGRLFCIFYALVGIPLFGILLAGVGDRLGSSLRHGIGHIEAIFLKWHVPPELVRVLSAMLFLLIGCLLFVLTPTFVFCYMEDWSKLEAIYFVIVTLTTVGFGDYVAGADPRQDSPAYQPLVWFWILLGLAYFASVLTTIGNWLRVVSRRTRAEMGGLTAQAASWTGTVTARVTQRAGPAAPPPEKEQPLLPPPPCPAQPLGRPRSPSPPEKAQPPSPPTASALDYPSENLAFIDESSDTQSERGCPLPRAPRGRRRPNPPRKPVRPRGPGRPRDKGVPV
To be noted: authors: little effect; difference current between -40 and -80 mV; pH 7.4; 2.5 mM external K; room temperature.

Assay [1] concerns the target T2, hTASK-2 (K2P5.1) (Homo sapiens, UniProt O95279).
T2 construct: gene KCNK5; full-length channel in pcDNA3.1, transiently expressed in tsA201 cells; functional dimer
T2 sequence (O95279 1-499): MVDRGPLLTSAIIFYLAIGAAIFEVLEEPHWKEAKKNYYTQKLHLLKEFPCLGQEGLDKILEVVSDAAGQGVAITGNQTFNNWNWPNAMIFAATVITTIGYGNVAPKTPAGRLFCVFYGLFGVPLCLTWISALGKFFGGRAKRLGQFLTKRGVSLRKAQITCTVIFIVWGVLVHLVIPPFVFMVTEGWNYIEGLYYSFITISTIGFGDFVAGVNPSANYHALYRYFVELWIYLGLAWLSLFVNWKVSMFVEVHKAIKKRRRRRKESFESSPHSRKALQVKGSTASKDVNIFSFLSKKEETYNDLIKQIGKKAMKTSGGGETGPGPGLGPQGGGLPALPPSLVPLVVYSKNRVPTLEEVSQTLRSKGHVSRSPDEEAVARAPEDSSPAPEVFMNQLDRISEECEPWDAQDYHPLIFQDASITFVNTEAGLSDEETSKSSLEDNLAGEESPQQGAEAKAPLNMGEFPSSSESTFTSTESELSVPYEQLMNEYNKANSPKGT
To be noted: activation; no effect at 100 μM; pH 7.4; 2.5 mM external K; room temperature.

Assay [2] deals with T3, hTRESK (K2P18.1) (Homo sapiens, UniProt Q7Z418, S252E/S264E).
T3 construct: gene KCNK18; full-length channel in pcDNA3.1, transiently expressed in tsA201 cells; homodimer
T3 sequence (Q7Z418 1-384 S252E/S264E): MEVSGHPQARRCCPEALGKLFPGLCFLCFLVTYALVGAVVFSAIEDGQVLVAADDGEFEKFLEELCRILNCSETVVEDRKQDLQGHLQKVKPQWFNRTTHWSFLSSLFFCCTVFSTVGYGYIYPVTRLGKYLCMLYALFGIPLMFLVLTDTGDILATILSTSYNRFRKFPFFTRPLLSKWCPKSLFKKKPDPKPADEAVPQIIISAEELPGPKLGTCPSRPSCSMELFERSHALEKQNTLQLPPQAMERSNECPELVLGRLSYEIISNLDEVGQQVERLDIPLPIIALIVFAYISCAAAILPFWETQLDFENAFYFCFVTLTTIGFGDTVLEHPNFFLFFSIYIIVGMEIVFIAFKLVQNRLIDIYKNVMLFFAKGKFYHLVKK

For assay [3], the target named is T4, hTRESK (K2P18.1) (Homo sapiens, UniProt Q7Z418, S252A/S264A).
T4 construct: gene KCNK18; full-length channel in pcDNA3.1, transiently expressed in tsA201 cells; homodimer
T4 sequence (Q7Z418 1-384 S252A/S264A): T3 sequence (Q7Z418 1-384 S252E/S264E) with E252A, E264A

The target of a further assay is T5, hTREK-2 (K2P10.1) (Homo sapiens, UniProt P57789).
T5 construct: gene KCNK10; full-length channel in pcDNA3.1, transiently expressed in tsA201 cells; homodimer
T5 sequence (P57789 1-538): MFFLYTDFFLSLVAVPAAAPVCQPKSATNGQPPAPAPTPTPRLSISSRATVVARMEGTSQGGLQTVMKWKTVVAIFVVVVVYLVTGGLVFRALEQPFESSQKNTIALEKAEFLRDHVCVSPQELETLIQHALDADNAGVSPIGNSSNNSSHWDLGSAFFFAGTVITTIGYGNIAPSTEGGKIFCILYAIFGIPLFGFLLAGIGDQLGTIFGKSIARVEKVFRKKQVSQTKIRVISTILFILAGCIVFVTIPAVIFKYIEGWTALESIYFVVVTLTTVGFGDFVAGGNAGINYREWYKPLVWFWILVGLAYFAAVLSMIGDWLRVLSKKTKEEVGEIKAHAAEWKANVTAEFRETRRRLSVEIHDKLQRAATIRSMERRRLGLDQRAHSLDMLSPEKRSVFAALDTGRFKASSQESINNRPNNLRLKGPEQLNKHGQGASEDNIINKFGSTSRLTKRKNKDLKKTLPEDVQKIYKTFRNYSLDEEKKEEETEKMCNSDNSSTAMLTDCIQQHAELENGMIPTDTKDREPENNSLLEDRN
To be noted: activation; difference current between -40 and -80 mV; pH 7.4; 2.5 mM external K; room temperature.

The target of assay [4] is T6, hTRESK (K2P18.1) (Homo sapiens, UniProt Q7Z418).
T6 construct: gene KCNK18; full-length channel in pcDNA3.1, transiently expressed in tsA201 cells; homodimer
T6 sequence (Q7Z418 1-384): T3 sequence (Q7Z418 1-384 S252E/S264E) with E252S, E264S

In assay [5] the target is T7, hTRESK (K2P18.1) (Homo sapiens, UniProt Q7Z418, F145A/F352A).
T7 construct: gene KCNK18; full-length channel in pcDNA3.1, transiently expressed in tsA201 cells; homodimer
T7 sequence (Q7Z418 1-384 F145A/F352A): T3 sequence (Q7Z418 1-384 S252E/S264E) with F145A, E252S, E264S, F352A

In assay [6] the target is T8, hTASK-2 (K2P5.1) (Homo sapiens, UniProt O95279, T108P).
T8 construct: gene KCNK5; full-length channel in pcDNA3.1, transiently expressed in tsA201 cells; functional dimer
T8 sequence (O95279 1-499 T108P): T2 sequence (O95279 1-499) with T108P

In assay [7] the target is T2, hTASK-2 (K2P5.1). To be noted: activation; pH 7.4; 2.5 mM external K; room temperature.

Residue numbers refer to the chain shown, from its start.

Turning to `COc1cccc2c1cc([N+](=O)[O-])c1c(C(=O)O)cc3c(c12)OCO3` [Aristolochic acid I], the “% enhancement at 100 μM” value on hTRAAK (K2P4.1) stood at 8 ± 5%; at hTREK-2 (K2P10.1), 44 ± 11%. Besides, on hTASK-2 (K2P5.1) [1], the “% enhancement at 300 μM” value is reported as 21 ± 13%. For the same compound, the inhibition (in general, the change of the read-out against control, counted positive when it falls) at 100 µM against hTRESK (K2P18.1) [2] came out at 73 ± 5%; at hTRESK (K2P18.1) [3], 80 ± 2%; on hTRESK (K2P18.1) [5], 0%. Also, 13 ± 2 µM corresponded to half-maximal inhibition against hTRESK (K2P18.1) [4] (IC50).

On hTASK-2 (K2P5.1) [6], `O=C(O)c1ccccc1Nc1cccc(C(F)(F)F)c1` [Flufenamic acid] had an inhibition at 100 µM of 15 ± 14%. Also, at hTASK-2 (K2P5.1) [7], the “% enhancement at 100 μM” value is recorded as 80 ± 31%.

(Values after article PMC4842925, “Aristolochic acid, a plant extract used in the treatment of pain and linked to Balkan endemic nephropathy, is a regulator of K2P channels” (British Journal of Pharmacology, 2016).)
